Laboratory results published in the NIST ThermoML archive (doi:10.1021/je200721d).
Numbers after ± are expanded uncertainties.

Assay: xn = mol fraction of the nth substance listed
Details: Liquid, Vibrating tube method

CCCCCCCCCC [decane] + CCCCCC
mass density (343.06 K, 22000 kPa, x2 = 0.7524): 665.93 ± 0.47 kg/m3
mass density (343.06 K, 23000 kPa, x2 = 0.2185): 702.17 ± 0.44 kg/m3
mass density (343.06 K, 23000 kPa, x2 = 0.7524): 666.87 ± 0.48 kg/m3
mass density (343.06 K, 24000 kPa, x2 = 0.2185): 702.97 ± 0.44 kg/m3
mass density (343.06 K, 24000 kPa, x2 = 0.7524): 667.79 ± 0.49 kg/m3
mass density (343.06 K, 25000 kPa, x2 = 0.2185): 703.79 ± 0.45 kg/m3
mass density (343.06 K, 25000 kPa, x2 = 0.7524): 668.69 ± 0.5 kg/m3
mass density (343.08 K, 1000 kPa, x2 = 0.4968): 663.07 ± 0.27 kg/m3
mass density (343.08 K, 2000 kPa, x2 = 0.4968): 664.35 ± 0.27 kg/m3
mass density (343.08 K, 3000 kPa, x2 = 0.4968): 665.55 ± 0.28 kg/m3
mass density (343.08 K, 4000 kPa, x2 = 0.4968): 666.8 ± 0.29 kg/m3
mass density (343.08 K, 5000 kPa, x2 = 0.4968): 667.97 ± 0.3 kg/m3
mass density (343.08 K, 6000 kPa, x2 = 0.4968): 669.14 ± 0.31 kg/m3
mass density (343.08 K, 7000 kPa, x2 = 0.4968): 670.28 ± 0.31 kg/m3
mass density (343.08 K, 8000 kPa, x2 = 0.4968): 671.4 ± 0.32 kg/m3
mass density (343.08 K, 9000 kPa, x2 = 0.4968): 672.48 ± 0.33 kg/m3
mass density (343.08 K, 10000 kPa, x2 = 0.4968): 673.55 ± 0.34 kg/m3
mass density (343.08 K, 11000 kPa, x2 = 0.4968): 674.64 ± 0.35 kg/m3
mass density (343.08 K, 12000 kPa, x2 = 0.4968): 675.64 ± 0.36 kg/m3
mass density (343.08 K, 13000 kPa, x2 = 0.4968): 676.63 ± 0.37 kg/m3
mass density (343.08 K, 14000 kPa, x2 = 0.4968): 677.63 ± 0.37 kg/m3
mass density (343.08 K, 15000 kPa, x2 = 0.4968): 678.63 ± 0.38 kg/m3
mass density (343.08 K, 16000 kPa, x2 = 0.4968): 679.61 ± 0.39 kg/m3
mass density (343.08 K, 17000 kPa, x2 = 0.4968): 680.59 ± 0.4 kg/m3
mass density (343.08 K, 18000 kPa, x2 = 0.4968): 681.52 ± 0.41 kg/m3
mass density (343.08 K, 19000 kPa, x2 = 0.4968): 682.46 ± 0.42 kg/m3
mass density (343.08 K, 20000 kPa, x2 = 0.4968): 683.4 ± 0.43 kg/m3
mass density (343.08 K, 21000 kPa, x2 = 0.4968): 684.32 ± 0.44 kg/m3
mass density (343.08 K, 22000 kPa, x2 = 0.4968): 685.22 ± 0.45 kg/m3
mass density (343.08 K, 23000 kPa, x2 = 0.4968): 686.1 ± 0.46 kg/m3
mass density (343.08 K, 24000 kPa, x2 = 0.4968): 686.98 ± 0.46 kg/m3
mass density (343.08 K, 25000 kPa, x2 = 0.4968): 687.83 ± 0.47 kg/m3
mass density (352.75 K, 1000 kPa, x2 = 0.8991): 617.37 ± 0.28 kg/m3
mass density (352.75 K, 2000 kPa, x2 = 0.8991): 618.91 ± 0.29 kg/m3
mass density (352.75 K, 3000 kPa, x2 = 0.8991): 620.43 ± 0.3 kg/m3
mass density (352.75 K, 4000 kPa, x2 = 0.8991): 621.91 ± 0.31 kg/m3
mass density (352.75 K, 5000 kPa, x2 = 0.8991): 623.4 ± 0.3 kg/m3
mass density (352.75 K, 6000 kPa, x2 = 0.8991): 624.85 ± 0.33 kg/m3
mass density (352.75 K, 7000 kPa, x2 = 0.8991): 626.29 ± 0.34 kg/m3
mass density (352.75 K, 8000 kPa, x2 = 0.8991): 627.7 ± 0.4 kg/m3
mass density (352.75 K, 9000 kPa, x2 = 0.8991): 629.09 ± 0.36 kg/m3
mass density (352.75 K, 10000 kPa, x2 = 0.8991): 630.46 ± 0.37 kg/m3
mass density (352.75 K, 11000 kPa, x2 = 0.8991): 631.8 ± 0.4 kg/m3
mass density (352.75 K, 12000 kPa, x2 = 0.8991): 633.12 ± 0.39 kg/m3
mass density (352.75 K, 13000 kPa, x2 = 0.8991): 634.41 ± 0.4 kg/m3
mass density (352.75 K, 14000 kPa, x2 = 0.8991): 635.69 ± 0.41 kg/m3
mass density (352.75 K, 15000 kPa, x2 = 0.8991): 636.93 ± 0.42 kg/m3
mass density (352.75 K, 16000 kPa, x2 = 0.8991): 638.16 ± 0.43 kg/m3
mass density (352.75 K, 17000 kPa, x2 = 0.8991): 639.35 ± 0.44 kg/m3
mass density (352.75 K, 18000 kPa, x2 = 0.8991): 640.52 ± 0.45 kg/m3
mass density (352.75 K, 19000 kPa, x2 = 0.8991): 641.66 ± 0.46 kg/m3
mass density (352.75 K, 20000 kPa, x2 = 0.8991): 642.78 ± 0.47 kg/m3
mass density (352.75 K, 21000 kPa, x2 = 0.8991): 643.87 ± 0.48 kg/m3
mass density (352.75 K, 22000 kPa, x2 = 0.8991): 644.93 ± 0.49 kg/m3
mass density (352.75 K, 23000 kPa, x2 = 0.8991): 645.98 ± 0.5 kg/m3
mass density (352.75 K, 24000 kPa, x2 = 0.8991): 646.99 ± 0.52 kg/m3
mass density (352.75 K, 25000 kPa, x2 = 0.8991): 647.98 ± 0.53 kg/m3
mass density (352.99 K, 1000 kPa, x2 = 0.0456): 682.21 ± 0.26 kg/m3
mass density (352.99 K, 1000 kPa, x2 = 0.7524): 632.44 ± 0.28 kg/m3
mass density (352.99 K, 2000 kPa, x2 = 0.0456): 683.34 ± 0.27 kg/m3
mass density (352.99 K, 2000 kPa, x2 = 0.7524): 633.97 ± 0.29 kg/m3
mass density (352.99 K, 3000 kPa, x2 = 0.0456): 684.46 ± 0.27 kg/m3
mass density (352.99 K, 3000 kPa, x2 = 0.7524): 635.47 ± 0.29 kg/m3
mass density (352.99 K, 4000 kPa, x2 = 0.0456): 685.57 ± 0.28 kg/m3
mass density (352.99 K, 4000 kPa, x2 = 0.7524): 636.89 ± 0.3 kg/m3
mass density (352.99 K, 5000 kPa, x2 = 0.0456): 686.64 ± 0.29 kg/m3
mass density (352.99 K, 5000 kPa, x2 = 0.7524): 638.37 ± 0.31 kg/m3
mass density (352.99 K, 6000 kPa, x2 = 0.0456): 687.71 ± 0.29 kg/m3
mass density (352.99 K, 6000 kPa, x2 = 0.7524): 639.77 ± 0.32 kg/m3
mass density (352.99 K, 7000 kPa, x2 = 0.0456): 688.77 ± 0.3 kg/m3
mass density (352.99 K, 7000 kPa, x2 = 0.7524): 641.14 ± 0.33 kg/m3
mass density (352.99 K, 8000 kPa, x2 = 0.0456): 689.81 ± 0.31 kg/m3
mass density (352.99 K, 8000 kPa, x2 = 0.7524): 642.48 ± 0.34 kg/m3
mass density (352.99 K, 9000 kPa, x2 = 0.0456): 690.83 ± 0.32 kg/m3
mass density (352.99 K, 9000 kPa, x2 = 0.7524): 643.77 ± 0.35 kg/m3
mass density (352.99 K, 10000 kPa, x2 = 0.0456): 691.84 ± 0.33 kg/m3
mass density (352.99 K, 10000 kPa, x2 = 0.7524): 645.03 ± 0.36 kg/m3
mass density (352.99 K, 11000 kPa, x2 = 0.0456): 692.84 ± 0.33 kg/m3
mass density (352.99 K, 11000 kPa, x2 = 0.7524): 646.28 ± 0.37 kg/m3
mass density (352.99 K, 12000 kPa, x2 = 0.0456): 693.82 ± 0.34 kg/m3
mass density (352.99 K, 12000 kPa, x2 = 0.7524): 647.51 ± 0.38 kg/m3
mass density (352.99 K, 13000 kPa, x2 = 0.0456): 694.79 ± 0.35 kg/m3
mass density (352.99 K, 13000 kPa, x2 = 0.7524): 648.71 ± 0.39 kg/m3
mass density (352.99 K, 14000 kPa, x2 = 0.0456): 695.75 ± 0.36 kg/m3
mass density (352.99 K, 14000 kPa, x2 = 0.7524): 649.88 ± 0.4 kg/m3
mass density (352.99 K, 15000 kPa, x2 = 0.0456): 696.69 ± 0.37 kg/m3
mass density (352.99 K, 15000 kPa, x2 = 0.7524): 651.03 ± 0.41 kg/m3
mass density (352.99 K, 16000 kPa, x2 = 0.0456): 697.62 ± 0.37 kg/m3
mass density (352.99 K, 16000 kPa, x2 = 0.7524): 652.16 ± 0.42 kg/m3
mass density (352.99 K, 17000 kPa, x2 = 0.0456): 698.54 ± 0.38 kg/m3
mass density (352.99 K, 17000 kPa, x2 = 0.7524): 653.28 ± 0.43 kg/m3
mass density (352.99 K, 18000 kPa, x2 = 0.0456): 699.44 ± 0.39 kg/m3
mass density (352.99 K, 18000 kPa, x2 = 0.7524): 654.35 ± 0.44 kg/m3
mass density (352.99 K, 19000 kPa, x2 = 0.0456): 700.33 ± 0.4 kg/m3
